Experimental data reported in PubChem BioAssay (NCI).
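Grown in 96-well plates, cells were treated for 48 hours with each compound at five concentrations. Insufficient inhibition: endpoint recorded as highest concentration tested. Abbreviation: GI50, concentration required for 50% inhibition of growth. TGI: total growth inhibition.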

Legend:
Test in all cases: NCI-60 cell line screen, 48 h
COLO 205 colon = test system: COLO 205 colon
SF-268 CNS = test system: SF-268 CNS
SF-295 CNS = test system: SF-295 CNS
MDA-MB-435 = test system: MDA-MB-435
HL-60(TB) leukemia = test system: HL-60(TB) leukemia
SF-539 CNS = test system: SF-539 CNS
NCI-H23 lung = test system: NCI-H23 lung
HOP-62 NSCLC = test system: HOP-62 NSCLC
MCF7 breast = test system: MCF7 breast
SW-620 colon = test system: SW-620 colon
T-47D breast = test system: T-47D breast
SN12C renal = test system: SN12C renal
HS 578T breast = test system: HS 578T breast
HT29 colon = test system: HT29 colon
OVCAR-3 ovarian = test system: OVCAR-3 ovarian
IGROV1 ovarian = test system: IGROV1 ovarian
UACC-257 melanoma = test system: UACC-257 melanoma
SNB-75 CNS = test system: SNB-75 CNS
OVCAR-5 ovarian = test system: OVCAR-5 ovarian
UO-31 renal = test system: UO-31 renal
KM12 colon = test system: KM12 colon
HCC-2998 colon = test system: HCC-2998 colon
BT-549 breast = test system: BT-549 breast
CAKI-1 renal = test system: CAKI-1 renal
HOP-92 NSCLC = test system: HOP-92 NSCLC
MOLT-4 leukemia = test system: MOLT-4 leukemia
MDA-MB-231 breast = test system: MDA-MB-231 breast
ACHN renal = test system: ACHN renal
UACC-62 melanoma = test system: UACC-62 melanoma
SK-MEL-28 melanoma = test system: SK-MEL-28 melanoma
HCT-15 colon = test system: HCT-15 colon
RPMI-8226 leukemia = test system: RPMI-8226 leukemia
M14 melanoma = test system: M14 melanoma
HCT-116 colon = test system: HCT-116 colon
MALME-3M melanoma = test system: MALME-3M melanoma
OVCAR-8 ovarian = test system: OVCAR-8 ovarian
CCRF-CEM leukemia = test system: CCRF-CEM leukemia
A498 renal = test system: A498 renal
U251 CNS = test system: U251 CNS
NCI/ADR-RES ovarian = test system: NCI/ADR-RES ovarian
786-0 renal = test system: 786-0 renal
SK-MEL-5 melanoma = test system: SK-MEL-5 melanoma
NCI-H460 lung = test system: NCI-H460 lung
TK-10 renal = test system: TK-10 renal
SNB-19 CNS = test system: SNB-19 CNS
DU-145 prostate = test system: DU-145 prostate
SK-OV-3 ovarian = test system: SK-OV-3 ovarian
PC-3 prostate = test system: PC-3 prostate
SR leukemia = test system: SR leukemia
SK-MEL-2 melanoma = test system: SK-MEL-2 melanoma
OVCAR-4 ovarian = test system: OVCAR-4 ovarian
K-562 leukemia = test system: K-562 leukemia
NCI-H522 lung = test system: NCI-H522 lung
NCI-H226 lung = test system: NCI-H226 lung
LOX IMVI melanoma = test system: LOX IMVI melanoma
A549 NSCLC = test system: A549 NSCLC

CN(C)CCCNCc1ccc(-c2ccc(F)c(Cl)c2)o1
GI50 (COLO 205 colon): 4.52 µM
TGI (COLO 205 colon): 15.5 µM
GI50 (SF-268 CNS): 12.1 µM
TGI (SF-268 CNS): 24.8 µM
GI50 (SF-295 CNS): 14.3 µM
TGI (SF-295 CNS): 31.2 µM
GI50 (MDA-MB-435): 5.58 µM
TGI (MDA-MB-435): 20.5 µM
GI50 (HL-60(TB) leukemia): 14.1 µM
TGI (HL-60(TB) leukemia): 30.7 µM
GI50 (SF-539 CNS): 12.9 µM
TGI (SF-539 CNS): 27.9 µM
GI50 (NCI-H23 lung): 14.7 µM
TGI (NCI-H23 lung): 31.5 µM
GI50 (HOP-62 NSCLC): 14.5 µM
TGI (HOP-62 NSCLC): 28.2 µM
GI50 (MCF7 breast): 10.1 µM
TGI (MCF7 breast): 23.4 µM
GI50 (SW-620 colon): 14 µM
TGI (SW-620 colon): 30.3 µM
GI50 (T-47D breast): 11.8 µM
TGI (T-47D breast): 28.3 µM
GI50 (SN12C renal): 12.1 µM
TGI (SN12C renal): 26.6 µM
GI50 (HS 578T breast): 10.3 µM
TGI (HS 578T breast): 26.8 µM
GI50 (HT29 colon): 6.18 µM
TGI (HT29 colon): 20.4 µM
GI50 (OVCAR-3 ovarian): 15.4 µM
TGI (OVCAR-3 ovarian): 29.8 µM
GI50 (IGROV1 ovarian): 13.5 µM
TGI (IGROV1 ovarian): 32.2 µM
GI50 (UACC-257 melanoma): 3.81 µM
TGI (UACC-257 melanoma): 13.8 µM
GI50 (SNB-75 CNS): 1.23 µM
TGI (SNB-75 CNS): 18.1 µM
GI50 (OVCAR-5 ovarian): 15.5 µM
TGI (OVCAR-5 ovarian): 33.6 µM
GI50 (UO-31 renal): 12.3 µM
TGI (UO-31 renal): 26.9 µM
GI50 (KM12 colon): 14.5 µM
TGI (KM12 colon): 29.2 µM
GI50 (HCC-2998 colon): 13 µM
TGI (HCC-2998 colon): 25.9 µM
GI50 (BT-549 breast): 11.8 µM
TGI (BT-549 breast): 26 µM
GI50 (CAKI-1 renal): 12.6 µM
TGI (CAKI-1 renal): 27.3 µM
GI50 (HOP-92 NSCLC): 3.06 µM
TGI (HOP-92 NSCLC): 20 µM
GI50 (MOLT-4 leukemia): 11.5 µM
TGI (MOLT-4 leukemia): 28 µM
GI50 (MDA-MB-231 breast): 9.89 µM
TGI (MDA-MB-231 breast): 22.3 µM
GI50 (ACHN renal): 15.9 µM
TGI (ACHN renal): 32.7 µM
GI50 (UACC-62 melanoma): 1.88 µM
TGI (UACC-62 melanoma): 3.79 µM
GI50 (SK-MEL-28 melanoma): 10.2 µM
TGI (SK-MEL-28 melanoma): 22.1 µM
GI50 (HCT-15 colon): 12.2 µM
TGI (HCT-15 colon): 32.4 µM
GI50 (RPMI-8226 leukemia): 10.7 µM
TGI (RPMI-8226 leukemia): 29.9 µM
GI50 (M14 melanoma): 7.2 µM
TGI (M14 melanoma): 22 µM
GI50 (HCT-116 colon): 8.33 µM
TGI (HCT-116 colon): 25 µM
GI50 (MALME-3M melanoma): 16 µM
TGI (MALME-3M melanoma): 33.5 µM
GI50 (OVCAR-8 ovarian): 16.2 µM
TGI (OVCAR-8 ovarian): 36.5 µM
GI50 (CCRF-CEM leukemia): 9.71 µM
TGI (CCRF-CEM leukemia): 26.3 µM
GI50 (A498 renal): 3.22 µM
TGI (A498 renal): 18.7 µM
GI50 (U251 CNS): 14.4 µM
TGI (U251 CNS): 30.7 µM
GI50 (NCI/ADR-RES ovarian): 15.7 µM
TGI (NCI/ADR-RES ovarian): 33.4 µM
GI50 (786-0 renal): 10.8 µM
TGI (786-0 renal): 23.7 µM
GI50 (SK-MEL-5 melanoma): 3.69 µM
TGI (SK-MEL-5 melanoma): 13.9 µM
GI50 (NCI-H460 lung): 14.3 µM
TGI (NCI-H460 lung): 29.8 µM
GI50 (TK-10 renal): 16.3 µM
TGI (TK-10 renal): 31.5 µM
GI50 (SNB-19 CNS): 15.3 µM
TGI (SNB-19 CNS): 32.8 µM
GI50 (DU-145 prostate): 16.6 µM
TGI (DU-145 prostate): 30.6 µM
GI50 (SK-OV-3 ovarian): 16.9 µM
TGI (SK-OV-3 ovarian): 31.1 µM
GI50 (PC-3 prostate): 12.2 µM
TGI (PC-3 prostate): 26.5 µM
GI50 (SR leukemia): 2.96 µM
TGI (SR leukemia): 8.37 µM
GI50 (SK-MEL-2 melanoma): 15.9 µM
TGI (SK-MEL-2 melanoma): 31.2 µM
GI50 (OVCAR-4 ovarian): 13 µM
TGI (OVCAR-4 ovarian): 35.8 µM
GI50 (K-562 leukemia): 3.06 µM
TGI (K-562 leukemia): 10.2 µM
GI50 (NCI-H522 lung): 13.6 µM
TGI (NCI-H522 lung): 30 µM
GI50 (NCI-H226 lung): 16.8 µM
TGI (NCI-H226 lung): 35 µM
GI50 (LOX IMVI melanoma): 5.23 µM
TGI (LOX IMVI melanoma): 18.2 µM
GI50 (A549 NSCLC): 16.1 µM
TGI (A549 NSCLC): 31.8 µM
